This is an account of results in patent US20040229816A1, “Anti-angiogenic and anti-tumoral properties of beta and gamma secretase inhibitors” (priority 2003, published 2004).

Experiment [1] has as its system human brain endothelial cells. Kind of experiment: proliferation of human brain endothelial cells (Quick cell proliferation assay kit). In kind it is cell-based. Particulars: various doses, 24 hours. As for the experimental part:
Primary cultures of human brain endothelial cells were plated at a density of 10^4 cells/[…] of EBM 4% in 96 wells culture plates and treated with various doses of γ-secretase and β-secretase inhibitors as indicated in the figure legends. Following 24 hours in culture, the EBM covering the cells was removed and assayed for Lacticodehydrogenase (LDH) activity using the cytotoxicity detection kit (Roche Diagnostic Corporation, Ind.). Cells were covered with […] of EBM 4% and cellular proliferation measured using the Quick cell proliferation assay kit (Biovision Research Products, Calif.).

In experiment [2] the test system is APP. Description: carboxyl-terminal APP fragments in human brain endothelial cell lysates (immunoblotting). The format is cell-based. The following applies: 5 μM, 24 hours. As for the experimental part: (§1) Confluent human brain endothelial cells (grown on 75 cm2 flasks with EBM 4% FBS medium) were treated for 24 hours with 5 μM of Z-VVL-CHO, 5 μM of L-685,458, 5 μM of OM99-2, 5 AM of DAPT or went untreated (control). Experiments were done in quadriplicate for each treatment condition. 6E10 (Signet), a mAb that recognizes residues 1-17 of human Aβ (Van Nostrand et al., Nature, 341, 546-549, 1989) was used to immunoprecipitate soluble APP generated following cleavage by α-secretase from cell culture medium. Immunoprecipitated material was resolved on a 4-20% gradient SDS-PAGE, transferred to PVDF membranes and immunodetected with mAb 22C11 (Roche Diagnostics) that recognizes the amino acids 66-81 of the N-terminal portion of APP (Hibich, C., J. Biol. Chem., 268, 26571-26577, 1993). Human brain endothelial cells were lysed on ice using MPERTM reagent (Pierce) supplemented with 1 mM PMSF and 1 mM of sodium-orthovanadate. Samples were sonicated and centrifuged at 10,000 g for 30 min at 4° C. The protein content of the lysates was determined using the BCA Protein assay kit (Pierce). Total lysates ([…] of protein/sample) were separated on a 4-20% gradient SDS-PAGE and transferred to PVDF membranes and immunoprobed with mAb 22C11 in order to detect full length APP and also immunoprobed with an Anti-APP-CT20 (Calbiochem) antibody which recognizes the amino acid residues 751-770 of the carboxyl terminal region of APP (Pinnix et al. 2001; J. Biol. Chem., 276, 481).
Background: A western blot detects proteins with antibodies after separation by electrophoresis.

The test system of experiment [3] is APP. Kind of experiment: α-sAPP secretion by human brain endothelial cells (immunoprecipitation, immunoblotting). The format is cell-based. Particulars: 5 μM, 24 hours. The procedure: as §1
For experiment [4], the target named is T1, β-secretase (Cricetulus griseus, UniProt G3IAK4).
T1 construct: endogenous in cells; host or cells: Chinese hamster ovary cells stably transfected with wild-type APP751
T1 sequence (G3IAK4 22-501): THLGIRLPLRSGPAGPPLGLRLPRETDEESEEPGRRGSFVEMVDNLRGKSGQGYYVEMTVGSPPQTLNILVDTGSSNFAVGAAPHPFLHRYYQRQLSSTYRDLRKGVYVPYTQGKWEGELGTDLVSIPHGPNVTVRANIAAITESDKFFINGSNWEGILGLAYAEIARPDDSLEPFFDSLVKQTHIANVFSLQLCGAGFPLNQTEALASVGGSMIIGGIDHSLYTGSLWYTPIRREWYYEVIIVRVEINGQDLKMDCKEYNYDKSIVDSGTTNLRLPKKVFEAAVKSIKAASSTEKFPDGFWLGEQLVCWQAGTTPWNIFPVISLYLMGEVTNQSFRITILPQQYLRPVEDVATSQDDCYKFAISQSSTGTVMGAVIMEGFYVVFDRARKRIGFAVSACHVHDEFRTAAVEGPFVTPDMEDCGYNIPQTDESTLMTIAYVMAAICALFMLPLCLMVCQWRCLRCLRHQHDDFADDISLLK
The following applies: Chinese hamster ovary cells, wild-type APP751, cited from earlier work.

Experiment [5] deals with Human middle cerebral artery endothelial cells. Description: capillary morphogenesis assay. The format is cell-based. As for the experimental part: Two hundred μl of Matrigel were placed into each well of a 24-well culture plate at 4° C. and allowed to polymerize by incubation at 37° C. Human middle cerebral artery endothelial cells (5×104) were seeded on the Matrigel in 1 ml of EBM containing 4% fetal calf serum. The cells were incubated at 37° C. for 20 hours in a humidified 5% CO2 atmosphere in the presence or absence of various doses of γ-secretase and β-secretase inhibitors as indicated in the figure legends. The experiments were performed in quadruplicate for each treatment condition. For each culture, 2 randomly chosen fields were photographed using a 4×objective. An experimenter unaware of the different treatments measured the total length of tube structures in each photograph using the Image Pro Plus software (Media Cybernetic, Inc., Md.). Capillary network lengths for the different treatment conditions were expressed as the percentage of capillary network lengths obtained in the control condition.

“Also recorded” adds a separate entry of the source. Where two headings read alike, the source gives them in different places. Peptide text beside a SMILES is read from it. * marks the point of attachment. Cbz = O=C(OCc1ccccc1)*

As to `C[C@H](NC(=O)Cc1cc(F)cc(F)c1)C(=O)N[C@H](C(=O)OC(C)(C)C)c1ccccc1` [DAPT, N-[N-(3,5-difluorophenacetyl-L-alanyl)]-S-phenylglycine t-butyl ester], the “proliferation of human brain endothelial cells, dose dependence” value in experiment [1] is recorded as “dose dependently inhibited”. The “accumulation of carboxyl-terminal APP fragments (APP CTF)” value in experiment [2] was “stimulates; also recorded: promoted the accumulation”.

`CC(C)C[C@@H](C=O)NC(=O)[C@H](CC(C)C)NC(=O)[C@@H](NC(=O)OCc1ccccc1)C(C)C` [Z-VLL-CHO, N-benzyloxycarbony-val-leu-leucinal] (Cbz-Val-Leu-Leu-aldehyde): the “secretion of α-sAPP” value in experiment [3] is “stimulated”; in experiment [3] (listed as Z-VVL-CHO) it was “significantly inceases”. Besides, the IC50 in experiment [4] (read-out: formation of Aβ42, IC50) was 2500 nM; in experiment [4] (read-out: formation of Aβtotal, IC50), 700 nM. Moreover, the “formation of capillary structures, overall” value in experiment [5] is “profoundly anti-angiogenic”. In addition, the “proliferation of human brain endothelial cells, dose dependence” value in experiment [1] was “dose dependently inhibited”.

The term IC50 denotes the point on the concentration scale where inhibition reaches its midpoint.
